Measured values as given in patent US6110481A, “Controlled release device based on aqueous-organic partitioning in porous membranes” (Trustees of the Stevens Institute of Technology, priority 1994, dated 2000).

Key:
[1] = Distribution coefficient of benzoic acid between decanol and water; type: physicochemical
Source text: Analytical solutions for non-coated, wetted fibers and for non-coated, non-wetted fibers were developed to predict the aqueous phase benzoic acid concentration as a function of time for nylon fibers as well as Celgard® X-20 […] and 400 μm I.D. fibers, both wetted and non-wetted. Predicted results were compared with experimental data (for wetted fibers only) in FIGS. 1, 2 and 3 for Celgard® X-20 240 μm I.D., Celgard® X-20 400 μm I.D. and Nylon 6 600 μm I.D. fibers, respectively. The hollow fiber dimensions and membrane porosities were supplied by the manufacturer. In the case of the silicone coated fibers, the coating thickness was estimated experimentally. The diffusivity of benzoic acid in decanol was estimated using the Wilke-Chang Equation. The diffusivity of benzoic acid in water was taken from Reid et al., Properties of Gases and Liquids, McGraw Hill Book Co., New York, 1977. […]
Aqueous phase benzoic acid concentration was analyzed by a Hewlett-Packard HPLC model 1090, using a Hypersil ODS C-18 reverse phase column. […] The distribution coefficient of benzoic acid between decanol and water was determined experimentally.

[2] = from Reid et al., 1977, p. 576; cited from earlier work
[3] = glassy hydrogel matrix, solvent activation system; cited from earlier work
[4] = In vitro release from microporous hollow fibers into stirred water bath; type: physicochemical; conditions: 1 μm silicone-coated 240 μm Celgard fibers (with and without wax coating), octanol; experimental vs predicted for uncoated fibers
Protocol: Hollow fibers prepared as such may then be assembled in any fashion intended for controlled release purposes. Preliminary testing of the release kinetics of a selected agent is carried out by immersing a length of the hollow fiber with sealed ends in a stirred water bath and measuring the concentration of the agent in the water bath as it increased with time.
A coating on the outer surface of the fiber provides additional resistance to mass transfer. […] The controlled release of benzoic acid using silicone-coatedhollow fibers (with and without an additional wax coating) and octanol is shown in FIGS. 4A and 4B. For both Figures, the predicted results are based on a 240 μm uncoated fiber with the same membrane thickness, porosity and tortuosity. In FIG. 4A, a 240 μm Celgard® fiber was coated with a 1 μm silicone coating. In FIG. 4B, a 240 μm Celgard® fiber was coated with a 1 μm silicone coating, and an additional wax coating. In both experiments, the solvent was octanol and the diffusing species, benzoic acid.
Aqueous phase benzoic acid concentration was analyzed by a Hewlett-Packard HPLC model 1090, using a Hypersil ODS C-18 reverse phase column. A 40% acetonitrile -60% water (w/w) carrier and UV detector at 254 nm were used. The samples were injected manually into a […] sample loop. […] The distribution coefficient of benzoic acid between decanol and water was determined experimentally. […]

Row | Structure (SMILES) | distribution coefficient (m), ratio of equilibrium solute concentration in organic solvent over that in water [1] | diffusion coefficient in water [2] | release kinetics [3] | effect of fiber coating on time to approach steady state [4]
1 | O=C(O)c1ccccc1 [benzoic acid] | ~50 | 1.2 × 10^-5 cm^2 /s | zero order release kinetics | increases the time required for the system to approach steady state
2 | Cn1c(=O)c2[nH]cnc2n(C)c1=O [theophylline] |  |  | zero order release kinetics | 
